The source of these data is US20190076406A1, “METHODS AND COMPOSITIONS FOR TREATING CONDITIONS ASSOCIATED WITH ANGIOGENESIS USING A VASCULAR ADHESION PROTEIN-1 (VAP-1) INHIBITOR” (MASSACHUSETTS EYE & EAR INFIRMARY, priority 2007, published 2019).

Test [1] has as its target T1, rat semicarbazide-sensitive amine oxidase (SSAO) (Rattus norvegicus, UniProt O08590).
T1 sequence (O08590 1-763): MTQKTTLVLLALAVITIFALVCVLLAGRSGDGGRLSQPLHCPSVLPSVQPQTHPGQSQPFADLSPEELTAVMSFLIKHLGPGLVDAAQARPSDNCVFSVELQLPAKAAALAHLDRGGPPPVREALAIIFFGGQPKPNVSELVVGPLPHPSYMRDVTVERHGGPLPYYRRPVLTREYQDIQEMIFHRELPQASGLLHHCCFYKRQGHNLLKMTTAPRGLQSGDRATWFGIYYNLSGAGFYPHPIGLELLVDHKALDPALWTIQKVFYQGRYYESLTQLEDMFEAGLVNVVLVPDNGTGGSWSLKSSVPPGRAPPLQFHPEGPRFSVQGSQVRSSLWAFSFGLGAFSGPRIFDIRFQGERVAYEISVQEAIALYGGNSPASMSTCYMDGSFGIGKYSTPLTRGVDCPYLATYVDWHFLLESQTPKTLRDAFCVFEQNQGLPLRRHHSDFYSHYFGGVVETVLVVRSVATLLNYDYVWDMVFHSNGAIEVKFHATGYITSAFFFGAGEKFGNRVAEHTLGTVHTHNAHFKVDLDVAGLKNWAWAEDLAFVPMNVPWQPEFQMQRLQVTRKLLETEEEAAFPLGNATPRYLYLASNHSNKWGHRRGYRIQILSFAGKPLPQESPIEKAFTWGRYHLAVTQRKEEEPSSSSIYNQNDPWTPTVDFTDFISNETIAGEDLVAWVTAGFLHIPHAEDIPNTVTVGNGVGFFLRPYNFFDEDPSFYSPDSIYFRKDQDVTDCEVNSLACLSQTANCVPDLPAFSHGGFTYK
In words: IC50 against rat SSAO. Type of test: biochemical.

The test system of another test is MCP-1. In words: ELISA of MCP-1 in RPE-choroid complex after laser injury. Type of test: in vivo, rat. Conditions: 3 days after laser injury; 0.3 mg/kg daily i.p.; mean±SEM. The protocol: Brown-Norway rats were anesthetized with 0.2-0.3 ml of a 50:50 mixture of 100 mg/ml Ketamine and 20 mg/ml Xylazine. Pupils were dilated with 5.0% Phenylephrine and 0.8% Tropicamide. CNV was induced with a 532 nm laser (Oculight GLx, Iridex, Mountain View, Calif.). Six laser spots (150 mW, 100 μm, 100 msec) were placed in each eye using a slit-lamp delivery system and a cover glass as a contact lens. Production of a bubble at the time of laser confirmed the rupture of the Bruch's membrane.
To block VAP-1, a specific VAP-1 inhibitor, Compound II described above, was used (R-tech Ueno, Ltd., Tokyo, Japan). […]
The RPE-choroid complex was carefully isolated from eyes 3 days after photocoagulation and placed in 300 μl of lysis buffer supplemented with protease inhibitors and sonicated. The lysate was centrifuged at 15,000 rpm for 15 minutes at 4° C. and the levels of TNF-α, monocyte chemotactic protein (MCP)-1, and intercellular adhesion molecule (ICAM)-1 were determined with rat TNF-α (BD bioscience), MCP-1 (BD bioscience) and ICAM-1 (R&D Systems, Minneapolis, Minn.) enzyme-linked immunosorbent assay (ELISA) kits according to the manufacturers' protocols. Total protein concentration was determined using a Bio-Rad Protein Assay Kit (Bio-Rad Laboratories Hercules, Calif.) and dilutions of bovine serum albumin (Bio-Rad Laboratories) as standards.
(In general: In an ELISA, binding on a coated surface is turned into a signal by an enzyme label.)

Test [2] concerns the target T2, human semicarbazide-sensitive amine oxidase (SSAO) (Homo sapiens, UniProt Q16853).
T2 sequence (Q16853 1-763): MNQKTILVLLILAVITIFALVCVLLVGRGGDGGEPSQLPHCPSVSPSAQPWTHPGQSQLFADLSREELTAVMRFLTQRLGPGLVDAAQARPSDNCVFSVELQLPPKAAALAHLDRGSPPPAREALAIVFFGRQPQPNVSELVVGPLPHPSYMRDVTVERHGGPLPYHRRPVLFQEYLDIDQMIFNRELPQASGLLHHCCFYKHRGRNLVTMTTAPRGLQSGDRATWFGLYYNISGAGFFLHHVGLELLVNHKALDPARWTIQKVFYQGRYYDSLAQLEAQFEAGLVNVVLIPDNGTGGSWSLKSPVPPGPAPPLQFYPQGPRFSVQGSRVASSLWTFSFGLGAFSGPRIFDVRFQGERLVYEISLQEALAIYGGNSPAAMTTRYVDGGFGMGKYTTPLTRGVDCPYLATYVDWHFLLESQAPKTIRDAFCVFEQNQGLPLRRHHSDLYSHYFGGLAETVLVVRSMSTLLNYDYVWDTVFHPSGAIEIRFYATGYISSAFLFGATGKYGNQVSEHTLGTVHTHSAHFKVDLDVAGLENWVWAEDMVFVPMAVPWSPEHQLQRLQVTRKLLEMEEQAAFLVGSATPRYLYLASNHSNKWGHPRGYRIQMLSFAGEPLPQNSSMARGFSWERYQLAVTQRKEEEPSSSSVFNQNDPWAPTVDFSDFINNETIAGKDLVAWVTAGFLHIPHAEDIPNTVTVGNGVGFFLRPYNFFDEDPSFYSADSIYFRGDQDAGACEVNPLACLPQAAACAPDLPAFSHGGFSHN
The test can be described thus: IC50 against human SSAO. Type of test: biochemical.

Consider `CC(=O)Nc1nc(CCc2ccc(NC(=N)NN)cc2)c(Cc2ccc(S(C)(=O)=O)cc2)s1` [Compound II], for which the IC50 (usually the concentration that inhibits the measured activity by half) amounted to 8 nM in test [1] and 7 nM in test [2]. Moreover, in the test on MCP-1, the “MCP-1 protein level in RPE-choroid complex” value was found to be 662 ± 52 pg/mg.
